Experimental data taken from patent US20100331305A1, “OXO-HETEROCYCLE FUSED PYRIMIDINE COMPOUNDS, COMPOSITIONS AND METHODS OF USE” (Genentech, Inc., priority 2009, published 2010).

Assays:
[1] = biological target: mTOR enzyme (mTOR(1360-2549)+GBL) (Homo sapiens, UniProt P42345); assay: In vitro mTOR kinase assay (TR-FRET); assay type: biochemical; details: 0.25 nM mTOR+GBL, 8 uM ATP; values tied to compounds by order of Table 1; 'x or y' = two alternative values for separated diastereomers of unassigned stereochemistry; read-out: activity level (Ki) in the mTOR kinase assay
Procedure, shortened: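 Compounds were tested in 10-point dose curves from 10 uM top final concentration. The reaction was stopped with 2 nM Tb-anti-p4E-BP1 (T37/T46) antibody plus 10 mM EDTA for 30 minutes, and phospho-4E-BP1 was detected by TR-FRET. Ki apparent was fitted with the Morrison ATP-competitive tight-binding equation.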

PC3 cells = assay: In vitro cell proliferation assay; assay type: cell-based, human; details: Homo sapiens, PC-3, with PC3 cells; values tied to compounds by order of Table 1
Description: c. In Vitro Cell Proliferation Assay Efficacy of Formula I compounds were measured by a cell proliferation assay employing the following protocol: 1. An aliquot of 20 μl of cell culture containing about 10^3 cells (PC3 or MDAMB361.1) in medium was deposited in each well of a 384-well, opaque-walled plate. 2. Control wells were prepared containing medium and without cells; Cells were allowed to settle overnight. 3. The compound was added to the experimental wells and incubated for 3 days. 4. The plates were equilibrated to room temperature for approximately 30 minutes. 5. A volume of CellTiter-Glo Reagent equal to the volume of cell culture medium present in each well was added. […] The contents were mixed for 2 minutes on an orbital shaker to induce cell lysis. 7. The plate was incubated at room temperature for 20 minutes to stabilize the luminescence signal. 8. Luminescence was recorded and reported in graphs as RLU=relative luminescence units. Alternatively, cells were seeded at optimal density in a 96 well plate and incubated for 4 days in the presence of test compound. Alamar BlueTM was subsequently added to the assay medium, and cells were incubated for 6 h before reading at 544 nm excitation, 590 nm emission. EC50 values were calculated using a sigmoidal dose response curve fit.

mTOR enzyme (mTOR(1360-2549)+GBL), sequence (P42345 1360-2549, species assumed): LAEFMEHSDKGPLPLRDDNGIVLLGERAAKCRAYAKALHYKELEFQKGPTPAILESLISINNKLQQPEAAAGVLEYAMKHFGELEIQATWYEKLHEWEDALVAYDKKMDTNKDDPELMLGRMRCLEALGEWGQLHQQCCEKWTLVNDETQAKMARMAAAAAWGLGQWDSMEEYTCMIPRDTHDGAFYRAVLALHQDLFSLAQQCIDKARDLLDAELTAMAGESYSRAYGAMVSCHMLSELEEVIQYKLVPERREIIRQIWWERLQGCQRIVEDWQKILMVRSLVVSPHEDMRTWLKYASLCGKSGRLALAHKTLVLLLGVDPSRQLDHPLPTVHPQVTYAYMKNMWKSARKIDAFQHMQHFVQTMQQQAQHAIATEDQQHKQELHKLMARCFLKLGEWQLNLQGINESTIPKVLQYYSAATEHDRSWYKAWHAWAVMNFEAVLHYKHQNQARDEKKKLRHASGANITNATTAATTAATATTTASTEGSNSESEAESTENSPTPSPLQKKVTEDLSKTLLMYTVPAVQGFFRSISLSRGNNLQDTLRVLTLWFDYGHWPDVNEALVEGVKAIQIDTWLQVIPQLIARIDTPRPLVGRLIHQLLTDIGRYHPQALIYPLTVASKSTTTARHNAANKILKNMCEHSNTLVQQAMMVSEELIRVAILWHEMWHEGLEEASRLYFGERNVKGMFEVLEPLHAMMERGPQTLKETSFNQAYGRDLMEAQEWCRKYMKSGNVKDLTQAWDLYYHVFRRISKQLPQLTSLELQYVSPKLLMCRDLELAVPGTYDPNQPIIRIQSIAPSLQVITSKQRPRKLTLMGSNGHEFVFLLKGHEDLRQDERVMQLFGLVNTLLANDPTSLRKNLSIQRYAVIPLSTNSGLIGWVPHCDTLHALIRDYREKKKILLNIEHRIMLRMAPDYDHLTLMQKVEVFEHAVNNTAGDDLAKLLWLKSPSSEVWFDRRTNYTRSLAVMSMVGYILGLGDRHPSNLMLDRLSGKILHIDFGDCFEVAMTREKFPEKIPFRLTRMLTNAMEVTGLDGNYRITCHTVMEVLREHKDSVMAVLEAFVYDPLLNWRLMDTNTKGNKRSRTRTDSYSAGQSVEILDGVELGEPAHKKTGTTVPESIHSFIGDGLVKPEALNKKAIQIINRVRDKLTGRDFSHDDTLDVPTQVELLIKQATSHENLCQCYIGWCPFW
mTOR enzyme (mTOR(1360-2549)+GBL), sequence (Q9BVC4 whole entry partner, species assumed): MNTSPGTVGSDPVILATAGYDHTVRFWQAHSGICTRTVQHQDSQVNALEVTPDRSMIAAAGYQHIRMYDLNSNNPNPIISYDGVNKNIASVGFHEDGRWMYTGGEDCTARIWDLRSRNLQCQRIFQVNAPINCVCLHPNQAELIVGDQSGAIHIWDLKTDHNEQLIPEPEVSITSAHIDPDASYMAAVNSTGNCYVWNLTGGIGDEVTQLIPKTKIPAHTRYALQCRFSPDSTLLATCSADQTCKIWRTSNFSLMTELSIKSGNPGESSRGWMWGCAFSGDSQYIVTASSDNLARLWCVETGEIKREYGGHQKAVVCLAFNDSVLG

Row | SMILES | Ki [1] | EC50 (PC3 cells)
1 | C[C@H]1COCCN1c1nc(-c2ccc(Nc3nccc(=O)[nH]3)cc2)nc2c1CCCO2 [Example 34, (S)-2-(4-(4-(3-methylmorpholino)-6,7-dihydro-5H-pyrano[2,3-d]pyrimidin-2-yl)phenylamino)pyrimidin-4(3H)-one] | 1 nM | 45 nM
2 | C[C@H]1COCCN1c1nc(-c2ccc(Nc3cccc(=O)[nH]3)cc2)nc2c1CCCO2 [Example 35, (S)-6-(4-(4-(3-methylmorpholino)-6,7-dihydro-5H-pyrano[2,3-d]pyrimidin-2-yl)phenylamino)pyridin-2(1H)-one] | 2 nM | 236 nM
3 | O=c1ccnc(Nc2ccc(-c3nc4c(c(N5CCOCC5)n3)CCC3(CC3)O4)cc2)[nH]1 [Example 42, 2-(4-(4′-morpholino-5′,6′-dihydrospiro[cyclopropane-1,7′-pyrano[2,3-d]pyrimidine]-2′-yl)phenylamino)pyrimidin-4(3H)-one] | 1 nM | 56 nM
4 | O=C(Nc1ccc(-c2nc3c(c(N4CCOCC4)n2)CCC2(CC2)O3)cc1)NC1COC1 [Example 43, 1-(4-(4′-morpholino-5′,6′-dihydrospiro[cyclopropane-1,7′-pyrano[2,3-d]pyrimidine]-2′-yl)phenyl)-3-(oxetan-3-yl)urea] | 6 nM | 392 nM
5 | Cn1ccc(NC(=O)Nc2ccc(-c3nc4c(c(N5CCOCC5)n3)CCC3(CC3)O4)cc2)n1 [Example 44, 1-(1-methyl-1H-pyrazol-3-yl)-3-(4-(4′-morpholino-5′,6′-dihydrospiro[cyclopropane-1,7′-pyrano[2,3-d]pyrimidine]-2′-yl)phenyl)urea] | 2 nM | 329 nM
6 | Cn1cc(NC(=O)Nc2ccc(-c3nc4c(c(N5CCOCC5)n3)CCC3(CC3)O4)cc2)cn1 [Example 45, 1-(1-methyl-1H-pyrazol-4-yl)-3-(4-(4′-morpholino-5′,6′-dihydrospiro[cyclopropane-1,7′-pyrano[2,3-d]pyrimidine]-2′-yl)phenyl)urea] | 2 nM | 102 nM
7 | CCNC(=O)Nc1ccc(-c2nc3c(c(N4CCOC[C@@H]4C)n2)CCC2(CC2)O3)cc1 [Example 49, (S)-1-ethyl-3-(4-(4′-(3-methylmorpholino)-5′,6′-dihydrospiro[cyclopropane-1,7′-pyrano[2,3-d]pyrimidine]-2′-yl)phenyl)urea] | 0.3 nM | 67 nM
8 | C[C@H]1COCCN1c1nc(-c2ccc(NC(=O)Nc3cnn(C)c3)cc2)nc2c1CCC1(CC1)O2 [Example 50, (S)-1-(1-methyl-1H-pyrazol-4-yl)-3-(4-(4′-(3-methylmorpholino)-5′,6′-dihydrospiro[cyclopropane-1,7′-pyrano[2,3-d]pyrimidine]-2′-yl)phenyl)urea] | 1 nM | 29 nM
9 | C[C@H]1COCCN1c1nc(-c2ccc(NC(=O)NC3COC3)cc2)nc2c1CCC1(CC1)O2 [Example 51, (S)-1-(4-(4′-(3-methylmorpholino)-5′,6′-dihydrospiro[cyclopropane-1,7′-pyrano[2,3-d]pyrimidine]-2′-yl)phenyl)-3-(oxetan-3-yl)urea] | 1 nM | 77 nM
10 | C[C@H]1COCCN1c1nc(-c2ccc(NC(=O)Nc3ccn(C)n3)cc2)nc2c1CCC1(CC1)O2 [Example 52, (S)-1-(1-methyl-1H-pyrazol-3-yl)-3-(4-(4′-(3-methylmorpholino)-5′,6′-dihydrospiro[cyclopropane-1,7′-pyrano[2,3-d]pyrimidine]-2′-yl)phenyl)urea] | 1 nM | 172 nM
11 | Cc1coc(NC(=O)Nc2ccc(-c3nc4c(c(N5CCOC[C@@H]5C)n3)CCC3(CC3)O4)cc2)n1 [Example 53, (S)-1-(4-(4′-(3-methylmorpholino)-5′,6′-dihydrospiro[cyclopropane-1,7′-pyrano[2,3-d]pyrimidine]-2′-yl)phenyl)-3-(4-methyloxazol-2-yl)urea] | 1 nM | 233 nM
12 | C[C@H]1COCCN1c1nc(-c2ccc(Nc3cccc(=O)[nH]3)cc2)nc2c1CCC1(CC1)O2 [Example 54, (S)-6-(4-(4′-(3-methylmorpholino)-5′,6′-dihydrospiro[cyclopropane-1,7′-pyrano[2,3-d]pyrimidine]-2′-yl)phenylamino)pyridin-2(1H)-one] | 1 nM | 40 nM
13 | C[C@H]1COCCN1c1nc(-c2ccc(Nc3nccc(=O)[nH]3)cc2)nc2c1CCC1(CC1)O2 [Example 55, (S)-2-(4-(4′-(3-methylmorpholino)-5′,6′-dihydrospiro[cyclopropane-1,7′-pyrano[2,3-d]pyrimidine]-2′-yl)phenylamino)pyrimidin-4(3H)-one] | 0.2 nM | 15 nM
14 | CNC(=O)Nc1ccc(-c2nc3c(c(N4CCOC[C@@H]4C)n2)CCC2(CC2)O3)cc1 [Example 56, (S)-1-methyl-3-(4-(4′-(3-methylmorpholino)-5′,6′-dihydrospiro[cyclopropane-1,7′-pyrano[2,3-d]pyrimidine]-2′-yl)phenyl)urea] | 1 nM | 37 nM
15 | C[C@H]1COCCN1c1nc(-c2ccc(NC(=O)NCCS(C)(=O)=O)cc2)nc2c1CCC1(CC1)O2 [Example 57, (S)-1-(4-(4′-(3-methylmorpholino)-5′,6′-dihydrospiro[cyclopropane-1,7′-pyrano[2,3-d]pyrimidine]-2′-yl)phenyl)-3-(2-(methylsulfonyl)ethyl)urea] | 5 nM | 595 nM
16 | CNC(=O)Nc1ccc(-c2nc3c(c(N4CCOC[C@@H]4C)n2)COCC3)cc1 [Example 58, (S)-1-methyl-3-(4-(4-(3-methylmorpholino)-7,8-dihydro-5H-pyrano[4,3-d]pyrimidin-2-yl)phenyl)urea] | 7 nM | 173 nM
17 | C[C@H]1COCCN1c1nc(-c2ccc(NC(=O)NCCS(C)(=O)=O)cc2)nc2c1COCC2 [Example 59, (S)-1-(4-(4-(3-methylmorpholino)-7,8-dihydro-5H-pyrano[4,3-d]pyrimidin-2-yl)phenyl)-3-(2-(methylsulfonyl)ethyl)urea] | 46 nM | 4000 nM
18 | C[C@H]1COCCN1c1nc(-c2ccc(NC(=O)NCCO)cc2)nc2c1CCC1(CC1)O2 [Example 65, (S)-1-(2-hydroxyethyl)-3-(4-(4′-(3-methylmorpholino)-5′,6′-dihydrospiro[cyclopropane-1,7′-pyrano[2,3-d]pyrimidine]-2′-yl)phenyl)urea] | 0.4 nM | 19 nM
19 | C[C@H]1COCCN1c1nc(-c2ccc(NC(=O)NCCC#N)cc2)nc2c1CCC1(CC1)O2 [Example 66, (S)-1-(2-cyanoethyl)-3-(4-(4′-(3-methylmorpholino)-5′,6′-dihydrospiro[cyclopropane-1,7′-pyrano[2,3-d]pyrimidine]-2′-yl)phenyl)urea] | 2 nM | 99 nM
20 | CONC(=O)Nc1ccc(-c2nc3c(c(N4CCOC[C@@H]4C)n2)CCC2(CC2)O3)cc1 [Example 67, (S)-1-methoxy-3-(4-(4′-(3-methylmorpholino)-5′,6′-dihydrospiro[cyclopropane-1,7′-pyrano[2,3-d]pyrimidine]-2′-yl)phenyl)urea] | 10 nM | 853 nM
21 | C[C@H]1COCCN1c1nc(-c2ccc(NC(=O)NC[C@H](O)CO)cc2)nc2c1CCC1(CC1)O2 [Example 68, 1-((S)-2,3-dihydroxypropyl)-3-(4-(4′-((S)-3-methylmorpholino)-5′,6′-dihydrospiro[cyclopropane-1,7′-pyrano[2,3-d]pyrimidine]-2′-yl)phenyl)urea] | 3 nM | 804 nM
22 | C[C@H]1COCCN1c1nc(-c2ccc(NC(=O)NC[C@@H](O)CO)cc2)nc2c1CCC1(CC1)O2 [Example 69, 1-((R)-2,3-dihydroxypropyl)-3-(4-(4′-((S)-3-methylmorpholino)-5′,6′-dihydrospiro[cyclopropane-1,7′-pyrano[2,3-d]pyrimidine]-2′-yl)phenyl)urea] | 2 nM | 1200 nM
23 | C[C@H]1COCCN1c1nc(-c2ccc(NC(=O)NC3(CO)CC3)cc2)nc2c1CCC1(CC1)O2 [Example 70, (S)-1-(1-(hydroxymethyl)cyclopropyl)-3-(4-(4′-(3-methylmorpholino)-5′,6′-dihydrospiro[cyclopropane-1,7′-pyrano[2,3-d]pyrimidine]-2′-yl)phenyl)urea] | 20 nM | 1600 nM
24 | O=C(Nc1ccc(-c2nc3c(c(N4[C@@H]5CC[C@H]4COC5)n2)CCC2(CC2)O3)cc1)NC1COC1 [Example 71, 1-(4-(4′-((1R,5S)-3-oxa-8-azabicyclo[3.2.1]octan-8-yl)-5′,6′-dihydrospiro[cyclopropane-1,7′-pyrano[2,3-d]pyrimidine]-2′-yl)phenyl)-3-(oxetan-3-yl)urea] | 2 nM | 479 nM
25 | O=C(NCCO)Nc1ccc(-c2nc3c(c(N4[C@@H]5CC[C@H]4COC5)n2)CCC2(CC2)O3)cc1 [Example 72, 1-(4-(4′-((1R,5S)-3-oxa-8-azabicyclo[3.2.1]octan-8-yl)-5′,6′-dihydrospiro[cyclopropane-1,7′-pyrano[2,3-d]pyrimidine]-2′-yl)phenyl)-3-(2-hydroxyethyl)urea] | 1 nM | 173 nM
